Results: patent publication US12187702B2, “Sulfonamideurea compounds” (Inflazome Limited, priority 2018, dated 2025)
pIC50: −log10 of the molar value. Where a name gives a salt, the structure may show the parent alone.

The compounds below were run against NLRP3 (Homo sapiens, UniProt Q96P20) (assay: THP-1 cells pyroptosis assay (LPS + nigericin, resazurin read-out)). Conditions: THP-1 cells, 1 μg/ml LPS, 5 μM nigericin; NLRP3 inhibitory activity; read-out: THP IC50.
Chain of NLRP3 (Q96P20 whole entry): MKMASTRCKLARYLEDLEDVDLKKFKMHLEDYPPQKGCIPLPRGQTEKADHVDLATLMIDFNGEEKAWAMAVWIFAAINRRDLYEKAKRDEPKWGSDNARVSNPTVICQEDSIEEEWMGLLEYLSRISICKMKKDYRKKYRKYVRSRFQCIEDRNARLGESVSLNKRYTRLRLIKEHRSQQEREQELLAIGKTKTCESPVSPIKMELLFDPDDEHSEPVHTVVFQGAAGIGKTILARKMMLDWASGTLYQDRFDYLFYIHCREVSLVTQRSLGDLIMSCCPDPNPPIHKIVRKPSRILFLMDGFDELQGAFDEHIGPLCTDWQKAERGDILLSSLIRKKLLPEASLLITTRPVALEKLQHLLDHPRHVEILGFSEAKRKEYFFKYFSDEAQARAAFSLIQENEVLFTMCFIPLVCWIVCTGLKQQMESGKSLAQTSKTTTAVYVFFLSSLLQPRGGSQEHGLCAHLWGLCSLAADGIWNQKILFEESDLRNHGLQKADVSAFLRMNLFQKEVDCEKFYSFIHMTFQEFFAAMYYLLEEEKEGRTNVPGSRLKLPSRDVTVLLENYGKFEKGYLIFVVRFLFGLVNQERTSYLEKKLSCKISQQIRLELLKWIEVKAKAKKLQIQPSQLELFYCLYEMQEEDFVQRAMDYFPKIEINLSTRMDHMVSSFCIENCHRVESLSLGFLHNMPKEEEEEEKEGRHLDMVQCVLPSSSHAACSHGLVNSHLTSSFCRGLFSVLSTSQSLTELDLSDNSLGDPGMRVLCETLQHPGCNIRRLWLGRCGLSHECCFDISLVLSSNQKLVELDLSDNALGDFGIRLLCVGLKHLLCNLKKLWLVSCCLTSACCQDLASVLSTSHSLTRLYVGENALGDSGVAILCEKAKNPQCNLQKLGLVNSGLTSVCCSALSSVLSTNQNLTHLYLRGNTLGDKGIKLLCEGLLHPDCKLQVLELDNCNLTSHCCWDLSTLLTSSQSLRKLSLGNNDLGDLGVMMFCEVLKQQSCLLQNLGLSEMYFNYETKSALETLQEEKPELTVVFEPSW
Type: cell-based
Parameters: Seed THP-1 cells (25,000 cells/well) containing 1.0 μg/ml LPS; host or cells: THP-1 cells
Experimental: THP-1 cells (ATCC #TIB-202) were grown in RPMI containing L-glutamine (Gibco #11835) supplemented with 1 mM sodium pyruvate (Sigma #S8636) and penicillin (100 units/ml)/streptomycin (0.1 mg/ml) (Sigma #P4333) in 10% Fetal Bovine Serum (FBS) (Sigma #F0804). The cells were routinely passaged and grown to confluency (˜10^6 cells/ml). On the day of the experiment, THP-1 cells were harvested and resuspended into RPMI medium (without FBS). The cells were then counted and viability (>90%) checked by Trypan blue (Sigma #T8154). Appropriate dilutions were made to give a concentration of 625,000 cells/ml. To this diluted cell solution was added LPS (Sigma #L4524) to give a 1 μg/ml Final Assay Concentration (FAC). 40 μl of the final preparation was aliquoted into each well of a 96-well plate. The plate thus prepared was used for compound screening.
The following method step-by-step assay was followed for compound screening. • 1. Seed THP-1 cells (25,000 cells/well) containing 1.0 μg/ml LPS in 40 μl of RPMI medium (without FBS) in 96-well, black walled, clear bottom cell culture plates coated with poly-D-lysine (VWR #734-0317) • 2. Add 5 μl compound (8 points half-log dilution, with 10 μM top dose) or vehicle (DMSO 0.1% FAC) to the appropriate wells • 3. Incubate for 3 hrs at 37° C., 5% CO2 • 4. Add 5 μl nigericin (Sigma #N7143) (FAC 5 μM) to all wells • 5. Incubate for 1 hr at 37° C., 5% CO2 • 6. At the end of the incubation period, spin plates at 300×g for 3 mins and remove supernatant • 7. Then add 50 μl of resazurin (Sigma #R7017) (FAC 100 μM resazurin in RPMI medium without FBS) and incubate plates for a further 1-2 hrs at 37° C. and 5% CO2 • 8. Plates were read in an Envision reader at Ex 560 nm and Em 590 nm • 9. IC50 data is fitted to a non-linear regression equation (log inhibitor vs response-variable slope 4-parameters)
With `CC(C)N1[C@@H]2CC[C@H]1C[C@@H](NS(=O)(=O)NC(=O)Nc1c3c(cc4c1CCC4)CCC3)C2` [Example 33, (1R,3r,5S)-8-Isopropyl-8-azabicyclo[3.2.1]octan-3-(N-((1,2,3,5,6,7-hexahydro-s-indacen-4-yl)carbamoyl)-sulfonamide)] the pIC50 was > 5.30.
For `CCN(CC)[C@H]1C[C@H]2CC[C@@H](C1)N2S(=O)(=O)NC(=O)Nc1c2c(cc3c1CCC3)CCC2` [Example 64, (1R,3r,5S)-3-(Diethylamino)-N-((1,2,3,5,6,7-hexahydro-s-indacen-4-yl)carbamoyl)-8-azabicyclo[3.2.1]octane-8-sulfonamide], the pIC50 was > 6.30.
In the case of `O=C(Nc1c2c(cc3c1CCC3)CCC2)NS(=O)(=O)NCCCCO` [Example 54, 3-((N-(4-Hydroxybutyl))sulfamoyl)-1-(1,2,3,5,6,7-hexahydro-s-indacen-4-yl)urea, potassium salt], the pIC50 was > 5.30.
For `Cn1ccc(NS(=O)(=O)NC(=O)Nc2c3c(cc4c2CCC4)CCC3)n1` [Example 55, 3-((N-(1-Methyl-1H-pyrazol-3-yl))sulfamoyl)-1-(1,2,3,5,6,7-hexahydro-s-indacen-4-yl)urea, potassium salt], the pIC50 was > 6.00.
In the case of `CCN1CCCC(NS(=O)(=O)NC(=O)Nc2c3c(cc4c2CCC4)CCC3)C1` (stereo not shown) [Example 19, 3-(N-(1-Ethylpiperidin-3-yl)sulfamoyl)-1-(1,2,3,5,6,7-hexahydro-s-indacen-4-yl)urea, potassium salt], the pIC50 was > 6.00.
In the case of `CCN1CCN(S(=O)(=O)NC(=O)Nc2c3c(cc4c2CCC4)CCC3)CC1` [Example 21, 4-Ethyl-N-((1,2,3,5,6,7-hexahydro-s-indacen-4-yl)carbamoyl) piperazine-1-sulfonamide], the pIC50 was > 5.30.
With `O=C1Cc2cc(NS(=O)(=O)NC(=O)Nc3c4c(cc5c3CCC5)CCC4)ccc2N1` [Example 24, 3-(N-(2-Oxoindolin-5-yl)sulfamoyl)-1-(1,2,3,5,6,7-hexahydro-s-indacen-4-yl)urea, potassium salt] the pIC50 was > 5.00.
In the case of `O=C(Nc1c2c(cc3c1CCC3)CCC2)NS(=O)(=O)N1CCN2CCC1C2` (stereo not shown) [Example 60, potassium salt], the pIC50 was > 6.00.
`CN(C)CCCCNS(=O)(=O)NC(=O)Nc1c2c(cc3c1CCC3)CCC2` [Example 48, 3-(N-(4-(Dimethylamino)butyl)sulfamoyl)-1-(1,2,3,5,6,7-hexahydro-s-indacen-4-yl)urea, potassium salt] was tested, and the pIC50 was > 6.00.
`CC(C)c1cc(F)cc(-c2ccnc(C#N)c2)c1NC(=O)NS(=O)(=O)N(C)CC1CCCN1C` (stereo not shown) [Example 102] was tested, and the pIC50 was > 5.30.
In the case of `CCN1[C@@H]2CC[C@H]1C[C@H](NS(=O)(=O)NC(=O)Nc1c3c(cc4c1CCC4)CCC3)C2` [Example 74, (1R,3s,5S)-8-Ethyl-8-azabicyclo[3.2.1]octan-3-(N-((1,2,3,5,6,7-hexahydro-s-indacen-4-yl)carbamoyl)-sulfonamide)], the pIC50 was > 5.30.
In the case of `CN(C)C1CN(S(=O)(=O)NC(=O)Nc2c3c(cc4c2CCC4)CCC3)C1` [Example 17, 3-(Dimethylamino)-N-((1,2,3,5,6,7-hexahydro-s-indacen-4-yl)carbamoyl)azetidine-1-sulfonamide, potassium salt], the pIC50 was > 6.00.
With `CN(C)CCN(CCc1ccccc1)S(=O)(=O)NC(=O)Nc1c2c(cc3c1CCC3)CCC2` [Example 13, 3-(N-(2-(Dimethylamino)ethyl)-N-phenethylsulfamoyl)-1-(1,2,3,5,6,7-hexahydro-s-indacen-4-yl)urea, potassium salt] the pIC50 was > 6.00.
`CN(C)[C@@H]1C[C@H]2CC[C@@H](C1)N2S(=O)(=O)NC(=O)Nc1c2c(cc3c1CCC3)CCC2` [Example 77, (1R,3s,5S)-3-(Dimethylamino)-N-((1,2,3,5,6,7-hexahydro-s-indacen-4-yl)carbamoyl)-8-azabicyclo[3.2.1]octane-8-sulfonamide] was tested, and the pIC50 was > 5.00.
For `CC(C)CN(CCN(C)C)S(=O)(=O)NC(=O)Nc1c2c(cc3c1CCC3)CCC2` [Example 12, 3-(N-(2-(Dimethylamino)ethyl)-N-isobutylsulfamoyl)-1-(1,2,3,5,6,7-hexahydro-s-indacen-4-yl)urea, potassium salt], the pIC50 was > 5.30.
In the case of `CC(CN(C)C)NS(=O)(=O)NC(=O)Nc1c2c(cc3c1CCC3)CCC2` (stereo not shown) [Example 16, 3-(N-(1-(Dimethylamino)propan-2-yl)sulfamoyl)-1-(1,2,3,5,6,7-hexahydro-s-indacen-4-yl)urea, potassium salt], the pIC50 was > 5.30.
For `CN(C)CC(C)(C)NS(=O)(=O)NC(=O)Nc1c2c(cc3c1CCC3)CCC2` [Example 59, 3-(N-(1-(Dimethylamino)-2-methylpropan-2-yl)sulfamoyl)-1-(1,2,3,5,6,7-hexahydro-s-indacen-4-yl)urea, potassium salt], the pIC50 was > 5.30.
With `CN(C)C(C)(C)CNS(=O)(=O)NC(=O)Nc1c2c(cc3c1CCC3)CCC2` [Example 57, 3-(N-(2-(Dimethylamino)-2-methylpropyl)sulfamoyl)-1-(1,2,3,5,6,7-hexahydro-s-indacen-4-yl)urea, potassium salt] the pIC50 was > 5.30.
In the case of `CN1CCCCC1CN(C)S(=O)(=O)NC(=O)Nc1c2c(cc3c1CCC3)CCC2` (stereo not shown) [Example 22, 3-(N-methyl-N-((1-methylpiperidin-2-yl)methyl)sulfamoyl)-1-(1,2,3,5,6,7-hexahydro-s-indacen-4-yl)urea, potassium salt], the pIC50 was > 6.30.
For `CC(CN(C)C)N(C)S(=O)(=O)NC(=O)Nc1c2c(cc3c1CCC3)CCC2` (stereo not shown) [Example 27, 3-(N-(1-(dimethylamino)propan-2-yl)-N-methyl)sulfamoyl)-1-(1,2,3,5,6,7-hexahydro-s-indacen-4-yl)urea, potassium salt], the pIC50 was > 6.00.
`CN1C[C@@H]2C[C@H]1CN2S(=O)(=O)NC(=O)Nc1c2c(cc3c1CCC3)CCC2` [Example 67, (1S,4S)—N-((1,2,3,5,6,7-Hexahydro-s-indacen-4-yl)carbamoyl)-5-methyl-2,5-diazabicyclo[2.2.1]heptane-2-sulfonamide, potassium salt] was tested, and the pIC50 was > 6.00.
In the case of `CN1CC(CNS(=O)(=O)NC(=O)Nc2c3c(cc4c2CCC4)CCC3)C1` [Example 69, 3-(N-((1-Methylazetidin-3-yl)methyl)sulfamoyl)-1-(1,2,3,5,6,7-hexahydro-s-indacen-4-yl)urea, potassium salt], the pIC50 was > 6.00.
`COCCN(C)S(=O)(=O)NC(=O)Nc1c2c(cc3c1CCC3)CCC2` [Example 7, 3-Methyl-((2-Methoxyethyl)sulfamoyl)-1-(1,2,3,5,6,7-hexahydro-s-indacen-4-yl)urea, potassium salt] was tested, and the pIC50 was > 6.00.
For `Cc1nc(C(C)C)c(NC(=O)NS(=O)(=O)N(C)C2CCN(C)C2)n1-c1ccncc1` (stereo not shown) [Example 109, 1-(5-Isopropyl-2-methyl-3-(4-pyridyl)imidazol-4-yl)-3-(methyl-(1-methylpyrrolidin-3-yl)sulfamoyl)urea], the pIC50 was > 5.00.
For `CN1C2CC1CN(S(=O)(=O)NC(=O)Nc1c3c(cc4c1CCC4)CCC3)C2` [Example 100, N-((1,2,3,5,6,7-Hexahydro-s-indacen-4-yl)carbamoyl)-6-methyl-3,6-diazabicyclo[3.1.1]heptane-3-sulfonamide], the pIC50 was > 6.30.
For `CN1CC2CN(S(=O)(=O)NC(=O)Nc3c4c(cc5c3CCC5)CCC4)CC2C1` (stereo not shown) [Example 99, N-((1,2,3,5,6,7-Hexahydro-s-indacen-4-yl)carbamoyl)-5-methylhexahydropyrrolo[3,4-c]pyrrole-2(1H)-sulfonamide], the pIC50 was > 5.30.
For `O=C(Nc1c2c(cc3c1CCC3)CCC2)NS(=O)(=O)N1CC(N2CCCC2)C1` [Example 23, potassium salt], the pIC50 was > 5.30.
With `CCN(CC)CCN(CC)S(=O)(=O)NC(=O)Nc1c2c(cc3c1CCC3)CCC2` [Example 18, 3-(N-(2-(Diethylamino)ethyl)-N-ethylsulfamoyl)-1-(1,2,3,5,6,7-hexahydro-s-indacen-4-yl)urea, potassium salt] the pIC50 was > 5.30.
In the case of `CNCCN(C)S(=O)(=O)NC(=O)Nc1c2c(cc3c1CCC3)CCC2` [Example 32, 3-(N-Methyl-N-(2-(methylamino)ethyl))sulfamoyl)-1-(1,2,3,5,6,7-hexahydro-s-indacen-4-yl)urea, potassium salt], the pIC50 was > 5.30.
With `O=C(Nc1c2c(cc3c1CCC3)CCC2)NS(=O)(=O)N1[C@@H]2CC[C@H]1C[C@@H](N1CCCC1)C2` [Example 70, (1R,3r,5S)—N-((1,2,3,5,6,7-Hexahydro-s-indacen-4-yl)carbamoyl)-3-(pyrrolidin-1-yl)-8-azabicyclo[3.2.1]octane-8-sulfonamide] the pIC50 was > 6.00.
For `CCN(CC)CCN(C)S(=O)(=O)NC(=O)Nc1c2c(cc3c1CCC3)CCC2` [Example 53, 3-(N-(2-(Diethylamino)ethyl)-N-methyl)sulfamoyl)-1-(1,2,3,5,6,7-hexahydro-s-indacen-4-yl)urea, potassium salt], the pIC50 was > 5.30.
